Test [1] has as its system SW620 human colorectal cancer cells. Kind of test: Potentiation of the growth inhibiting activity of MMS, MTT based cell viability assay. Particulars: read-out: Compounds potentiate the growth inhibiting activity of MMS (IC50).
Experimental: The synergistic potentiation effect of PARP inhibitors on the growth inhibiting activity of DNA damaging anticancer drugs such as methyl methanesulphonate (MIMS) were measured with SW620 human colorectal cancer cells (Shanghai Cancer Institute) using a MTT based cell viability assay. SW620 cells were grown and maintained in RPMI1640 (Gibco) medium supplemented with 10% FBS (Hyclone). In the first day of experiment, 4000 cells were seeded to each well of a 96-well cell culture plate and incubated at 37° C. and 5% CO2 in a cell culture incubator overnight. In the next day, the cell culture medium was removed. […] The serial dilutions of the reference compounds and the compounds to be tested were made with a 1:3 and 1:10 fashion in DMSO. The 10-fold concentrated solutions of these compounds were made by mixing 10 μl of the serial dilutions in DMSO with 90 μl fresh medium. The final concentration of DMSO in the medium was 1%. The cells were incubated at 37° C. in 5% CO2 cell culture incubator for additional 5 days (120 hours). Afterwards, the 96-well cell culture plate was taken out and 20 μl of MTT solution was added to each well and incubated at 37° C. for 4 h. The medium was removed and 100 μl DMSO was added to each well. The 96-well cell culture plates were shaked adequately for 10 min and readed in a Varioskan Flash plate reader (Thermo Fisher Scientific) at 520 and 690 nm. The data were analyzed by Prism 5 software (GraphPad). The obtained 520 nm absorbance readings substracting corresponding 690 nm reading were analyzed and plotted against the Log scale of the compound concentrations.
For test [2], the system named is BRCA-2 deficient CAPAN-1 human pancreatic cancer cells. The test can be described thus: Cell growth inhibition of BRCA-2 deficient CAPAN-1 cells, MTT based cell viability assay. Particulars: read-out: Growth inhibition of CAPAN-1 cells by compounds (IC50).
Experimental: BRCA-2 deficient CAPAN-1 human pancreatic cancer cells were used to test the growth inhibiting activity of substituted 1-(arylmethyl)-5,6,7,8-tetrahydroquinazoline-2,4(1H,3H)-diones. Briefly, CAPAN-1 cells are grown and maintained in IMEM medium supplemented with 20% FBS. The assay takes 10 days to finish. On day 1, 6000 CAPAN-1 cells are seeded to each well of a 96-well plate. The cells are incubated at 37° C. in a CO2 cell culture incubator overnight. […] Ten-fold compound solutions were made by mixing 10 μl DMSO serial dilution solutions with 90 μl fresh growth medium. The cell culture medium was removed and 180 μl fresh media with FBS and 20 μl of compound solutions were added to each well. The final concentration of DMSO was 1%. Cells were then returned to the CO2 cell culture incubator and incubated at 37° C. for two days (day 3 and day 4). On day 5, the same procedure as what was done on day 2 was repeated. Cell culture medium was removed and fresh medium containing serial dilutions of compounds or reference compounds were added. Cells were returned to the CO2 cell culture incubator and incubated for two more days. On day 8, same procedure was repeated again and fresh medium containing the testing compounds or reference compounds were added and incubated for an additional 2 days. On day 10, 20 μl of MTT reagent (5 mg/ml) was added to each well of the cell culture plate and incubated for 4 h. The cell culture media was removed and 100 μl DMSO was added to each well. The 96-well cell culture plates were shaked horizontally for 10 min and readed in a Varioskan Flash plate reader (Thermo Fisher Scientific) at 520 and 690 nm. The obtained 520 nm absorbance readings substracting corresponding 690 nm reading were analyzed using a commercial graphic software (GraphPad Prism 5) and plotted against the Log scale of the compound concentrations.
Test [3] has as its system Human breast cancer cell line T47D. The test can be described thus: Potentiation of MMS induced apoptosis, cell based caspase-3 activity assay.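 Further: Caspase-3 activity in cell lysates measured by fluorescence (RFU), EC50 fitted from sigmoidal curve of signal versus log compound concentration in presence of MMS.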 Particulars: read-out: Compounds potentiate the apoptosis inducing activity of MMS (EC50).
Experimental: Human breast cancer cell line T47D (Nanjing KeyGEN Biotech. CO., LTD.) was used to determine the potentiation effect of PARP-1 inhibitors on the apoptosis inducing activity of DNA damaging anticancer drugs such as MMS. Intracellular caspase-3 activity was used to measure cell apoptosis. Briefly, T47D cells were grown in DMEM/F12 cell culture medium (Hyclone) supplemented with 0.2 U/ml insulin (Genview) and 10% FBS (Hyclone). A day before experiment, 20000 of T47D cells were seeded to each well of a 96-well cell culture plate and maintained at 37° C. and 5% CO2 in a cell culture incubator overnight. On the day of experiment, cell culture medium was removed. […] The serial dilutions of the compounds to be tested and the reference compounds were made in a 1:3 and 1:10 fashion in DMSO. The 10-fold compound solutions were made by mixing 10 μl DMSO serial dilution solutions with 90 μl fresh growth medium. Twenty four hours later, the cells in the 96-well plates were centrifuged at 1000 g for 5 min and the supernatants were removed. 50 μl lysis buffer (10 mM Tris, pH 7.5, 0.1M NaCl, 1 mM EDTA, 0.01% Triton X-100) was added to each well and the plates were shaked horizontally for 30 min at 4° C. After centrifugation at 1000 g at 4° C. for 10 min, 20 μl of supernatant was transferred from each well to a corresponding well in a 384-well black plate. […] The plates were shaked to uniformly mix the wells and incubated at 37° C. for 3 h. […] The caspase-3 activity induced by the compounds was expressed as a relative fluorescence unit (RFU). The obtained fluorescence readings were analyzed using a commercial graphic software (GraphPad Prism 5) and plotted against the Log value of the compound concentrations. The EC50 values were obtained by fitting the data points with the equation of Y (fluorescence reading)=minimal fluorescence reading+(maximal fluorescence reading−minimal fluorescence reading)/(1+10̂(LogEC50−LogC)), where C is the concentration of the testing compound. The EC50 values were obtained by fitting the data points with S-shaped dose response curve equation (GraphPad Software, Inc).
The target in the next test is T1, PARP-1 enzyme (Homo sapiens, UniProt P09874).
T1 construct: purchased Trevigen, Inc. 4676-096-K
Kind of test: PARP-1 enzymatic activity assay (Trevigen 96-well kit). It counts as biochemical. The note with it: 0.5 unit PARP-1, histone pre-coated plate, 60 min room temperature; read-out: The inhibitory effect of compounds on PARP-1 enzymatic activity (IC50). Here is the method: Briefly, PARP-1 catalyzes the NAD-dependent addition of poly(ADP-ribose) to its nuclear protein substrates such as histones. The assay kit measures the incorporation of biotynylated poly(ADP-ribose) onto histone proteins in a 96-well format.
To each well of histone pre-coated plate 10 μl of 5-fold concentrations of testing compounds or reference compound, 15 μl of PARP-1 enzyme (0.5 unit) and 25 μl reaction buffer were added and the plates were incubated at room temperature for 60 min. The plates were washed with 200 μl PBS with 0.1% Triton X-100 twice and then with 200 μl PBS twice. The residual liquid was removed by carefully tapping the plates on paper towels. Equal volumes of PeroxyGlow™ solution A and B were mixed and 100 μl of the solution was added to each well. The luminescence readings were read immediately in a Varioskan Flash plate reader (Thermo Fisher Scientific).

Molecules are shown by their SMILES. Like-named read-outs stand apart in the source and are kept apart here.

As a reminder, the IC50 is the point on the concentration scale where inhibition reaches its midpoint. The term EC50 denotes the concentration that produces a half-maximal response.

T1 sequence (P09874 whole entry): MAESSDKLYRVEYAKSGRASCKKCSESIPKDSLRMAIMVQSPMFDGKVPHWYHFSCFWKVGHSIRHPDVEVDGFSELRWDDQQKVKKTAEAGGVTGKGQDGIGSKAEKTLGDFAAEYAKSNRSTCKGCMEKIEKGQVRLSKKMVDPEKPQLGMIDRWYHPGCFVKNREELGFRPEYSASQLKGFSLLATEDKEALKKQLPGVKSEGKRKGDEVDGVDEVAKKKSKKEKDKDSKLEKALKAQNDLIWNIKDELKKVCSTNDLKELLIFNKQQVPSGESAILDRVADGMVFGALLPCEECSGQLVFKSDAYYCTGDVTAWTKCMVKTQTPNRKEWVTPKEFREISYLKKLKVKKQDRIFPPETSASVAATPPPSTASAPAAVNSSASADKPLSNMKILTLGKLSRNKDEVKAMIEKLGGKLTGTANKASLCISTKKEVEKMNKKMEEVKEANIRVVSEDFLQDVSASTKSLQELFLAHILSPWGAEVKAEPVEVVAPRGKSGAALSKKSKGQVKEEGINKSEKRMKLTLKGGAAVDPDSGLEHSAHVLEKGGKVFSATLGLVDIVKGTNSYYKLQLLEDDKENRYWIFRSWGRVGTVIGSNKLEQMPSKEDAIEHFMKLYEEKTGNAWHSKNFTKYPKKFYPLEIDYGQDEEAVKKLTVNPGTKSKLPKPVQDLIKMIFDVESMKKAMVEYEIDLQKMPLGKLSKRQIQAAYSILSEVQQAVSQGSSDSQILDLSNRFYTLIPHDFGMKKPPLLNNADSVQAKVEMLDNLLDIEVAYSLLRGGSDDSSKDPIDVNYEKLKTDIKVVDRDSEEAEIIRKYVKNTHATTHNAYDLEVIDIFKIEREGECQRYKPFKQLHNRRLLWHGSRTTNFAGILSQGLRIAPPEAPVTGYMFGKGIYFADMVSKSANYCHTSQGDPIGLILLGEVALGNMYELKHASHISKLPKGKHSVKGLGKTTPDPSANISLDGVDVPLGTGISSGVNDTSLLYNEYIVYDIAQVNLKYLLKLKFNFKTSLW

In the case of `O=C(c1cc(Cn2c3c(c(=O)[nH]c2=O)CCCC3)ccc1F)N1CCN(c2ncccn2)CC1` [Example 20], the half-inhibitory concentration (IC50) in test [1] (Homo sapiens, SW-620, 120 h) was found to be 0.83 nM; in test [2] (Homo sapiens, CAPAN-1, 240 h) it was 17 nM; at PARP-1 enzyme it was 2.6 nM. Moreover, the EC50 in test [3] (Homo sapiens, T47D, 24 h) amounted to 0.99 nM.

Regarding `O=C(c1cc(Cn2c3c(c(=O)[nH]c2=O)SCCC3)ccc1F)N1CCN(c2ncccn2)CC1` [Example 60], the 50% inhibitory concentration (IC50) in test [1] (SW620 cells, medium containing 1.5 μg/ml MMS, 5 days (120 hours), MTT) stood at 7.6 nM; in test [2] (BRCA-2 deficient CAPAN-1 cells, 10 day assay, MTT), 761 nM. Besides, the EC50 in test [3] (T47D cells, 100 nM MMS, 24 hours, intracellular caspase-3 activity) is 30 nM.
